Results published in article PMC4911353, “Pharmacologic Inhibition of Host Phosphodiesterase-4 Improves Isoniazid-Mediated Clearance of Mycobacterium tuberculosis” (Frontiers in Immunology, 2016).

Tested on: Mtb-infected mouse lungs
Test: Genome-wide lung transcriptome (microarray, IPA network/GO analysis) of Mtb-infected mice
Format: in vivo
[1] = Canonical IFN signaling pathway

With `CCOc1cc([C@@H](CS(C)(=O)=O)N2Cc3cccc(NC(=O)C4CC4)c3C2=O)ccc1OC` [CC-11050, N-[2-[(1S)-1-(3-ethoxy-4-methoxyphenyl)-2-(methylsulfonyl)ethyl]-2,3-dihydro-3-oxo-1H-isoindol-4-yl]-(9Cl) cyclopropanecarboxamide] the “Number of SDEGs affected by more than 1.5-folds” value (14 days of treatment (29 upregulated and 18 downregulated)) was 47, the “Number of SDEGs relative to infected untreated animals” value (14 days of treatment, FDR 5%) was 1,277 and the BAK expression [1] was 0. The BAX expression [1] was 0, the DRIP150 expression [1] was 0 and the IFI35 expression [1] was 0. The IFIT3 expression [1] was 0, the IFNAR2 expression [1] was 0 and the IFNG expression [1] was 0. The IFNGRb expression [1] was -1.115, the IRF1 expression [1] was 0 and the IRF9 expression [1] was 0. It also gave a JAK2 expression [1] of 0, an OAS1 expression [1] of 0 and a PIAS1 expression [1] of 0. The PSMB8 expression [1] was 0, the SOCS1 expression [1] was 0 and the STAT1 expression [1] was 0. It also gave an STAT2 expression [1] of 0, a TAP1 expression [1] of 0 and a TC-PTP expression [1] of 0. The TYK2 expression [1] was 0, the ACTB expression (IL17 interaction network) was 0 and the CCL2 expression (IL17 interaction network) was 0. It also gave a CCL5 expression (IL17 interaction network) of 0, a CCL13 expression (IL17 interaction network) of 0 and a CSF2 expression (IL17 interaction network) of 0. The EDIL3 expression (IL17 interaction network) was 0, the ENTPD1 expression (IL17 interaction network) was 1.149 and the HMGB1 expression (IL17 interaction network) was -1.135. It also gave an HSPB8 expression (IL17 interaction network) of 1.322, an IFNG expression (IL17 interaction network) of 0 and an IL1B expression (IL17 interaction network) of 0. The IL6 expression (IL17 interaction network) was 0, the IL10 expression (IL17 interaction network) was 0 and the IL16 expression (IL17 interaction network) was 0. The IL17A expression (IL17 interaction network) was 0, the IL17D expression (IL17 interaction network) was 0 and the IL17F expression (IL17 interaction network) was -1.184. For the same compound, the LTA expression (IL17 interaction network) was 0, the MMP9 expression (IL17 interaction network) was 0 and the NOS2 expression (IL17 interaction network) was 0. It also gave a PTGS2 expression (IL17 interaction network) of 0, an RGS13 expression (IL17 interaction network) of 0 and an SELE expression (IL17 interaction network) of 0. For the same compound, the STAT3 expression (IL17 interaction network) was 0, the TIMP1 expression (IL17 interaction network) was 0 and the TLR4 expression (IL17 interaction network) was 0. The TNF expression (IL17 interaction network) was 0, the TRAF3IP2 expression (IL17 interaction network) was 0 and the TRAF6 expression (IL17 interaction network) was 0. The VWF expression (IL17 interaction network) was 0, the ABL1 expression (Lung inflammation network) was 0 and the ACO2 expression (Lung inflammation network) was 0. It also gave an ACTB expression (Lung inflammation network) of 0, an ADORA2A expression (Lung inflammation network) of 0 and an AGER expression (Lung inflammation network) of 0. It also gave an AGTR1 expression (Lung inflammation network) of 0, an AHR expression (Lung inflammation network) of 0 and an ALDH2 expression (Lung inflammation network) of 0. For the same compound, the ANGPT1 expression (Lung inflammation network) was 0, the ANXA3 expression (Lung inflammation network) was 0 and the ATF3 expression (Lung inflammation network) was 0. For the same compound, the BAX expression (Lung inflammation network) was 0, the BID expression (Lung inflammation network) was 0 and the BSG expression (Lung inflammation network) was 0. For the same compound, the CASP1 expression (Lung inflammation network) was 0, the CAV1 expression (Lung inflammation network) was 0 and the CBL expression (Lung inflammation network) was 0. For the same compound, the CCL2 expression (Lung inflammation network) was 0, the CCL5 expression (Lung inflammation network) was 0 and the CCR4 expression (Lung inflammation network) was 0. For the same compound, the CCR5 expression (Lung inflammation network) was 0, the CD4 expression (Lung inflammation network) was 0 and the CD14 expression (Lung inflammation network) was 0. The CD40LG expression (Lung inflammation network) was 0, the CD44 expression (Lung inflammation network) was 0 and the CD86 expression (Lung inflammation network) was 0. It also gave a CD200 expression (Lung inflammation network) of 0, a CIITA expression (Lung inflammation network) of 0 and a CSF2RB expression (Lung inflammation network) of 0. For the same compound, the CSF2 expression (Lung inflammation network) was 0, the CSK expression (Lung inflammation network) was 0 and the CTLA4 expression (Lung inflammation network) was 0. The CTSS expression (Lung inflammation network) was 0, the CXCR3 expression (Lung inflammation network) was 0 and the CYBB expression (Lung inflammation network) was 0. The CYLD expression (Lung inflammation network) was 0, the Ccl6 expression (Lung inflammation network) was 0 and the Cd59a expression (Lung inflammation network) was 0. For the same compound, the Cxcl15 expression (Lung inflammation network) was 0, the E2F3 expression (Lung inflammation network) was -1.343 and the EDNRA expression (Lung inflammation network) was 0. The EDNRB expression (Lung inflammation network) was 1.235, the EIF2C2 expression (Lung inflammation network) was 0 and the ENTPD1 expression (Lung inflammation network) was 1.149. It also gave an F2RL1 expression (Lung inflammation network) of 0, an F10 expression (Lung inflammation network) of 0 and an FASLG expression (Lung inflammation network) of 0. The FBN1 expression (Lung inflammation network) was 0, the FCGR2B expression (Lung inflammation network) was 0 and the FCGRT expression (Lung inflammation network) was 1.165. It also gave an FOXO3 expression (Lung inflammation network) of 1.609, an HMGCR expression (Lung inflammation network) of 0 and an HRH1 expression (Lung inflammation network) of 0. It also gave an HTT expression (Lung inflammation network) of 0, an IFNG expression (Lung inflammation network) of 0 and an IFNGR2 expression (Lung inflammation network) of -1.115. It also gave an IKBKB expression (Lung inflammation network) of 0, an IKBKE expression (Lung inflammation network) of 0 and an IL1B expression (Lung inflammation network) of 0. For the same compound, the IL1R1 expression (Lung inflammation network) was 0, the IL2RG expression (Lung inflammation network) was 0 and the IL4R expression (Lung inflammation network) was 0. The IL6 expression (Lung inflammation network) was 0, the IL10 expression (Lung inflammation network) was 0 and the IL12B expression (Lung inflammation network) was 0. For the same compound, the IL15RA expression (Lung inflammation network) was 0, the IL16 expression (Lung inflammation network) was 0 and the IL17RB expression (Lung inflammation network) was 0. The IL18 expression (Lung inflammation network) was 0, the ITGB6 expression (Lung inflammation network) was 0 and the ITGBL1 expression (Lung inflammation network) was 0. It also gave an ITK expression (Lung inflammation network) of 0, a KIT expression (Lung inflammation network) of 0 and an LAT expression (Lung inflammation network) of 0. The LCP2 expression (Lung inflammation network) was 0, the LGALS1 expression (Lung inflammation network) was 0 and the LIF expression (Lung inflammation network) was -1.187. The LTA expression (Lung inflammation network) was 0, the MAP3K14 expression (Lung inflammation network) was 0 and the MARK2 expression (Lung inflammation network) was 0. For the same compound, the MGAT5 expression (Lung inflammation network) was 0, the MKL2 expression (Lung inflammation network) was 0 and the MMP9 expression (Lung inflammation network) was 0. It also gave an MMP14 expression (Lung inflammation network) of 0, an NCF1 expression (Lung inflammation network) of 0 and an NEO1 expression (Lung inflammation network) of 0. For the same compound, the NFATC2 expression (Lung inflammation network) was 0, the NFKB1 expression (Lung inflammation network) was 0 and the NLRP3 expression (Lung inflammation network) was 0. It also gave an NOD1 expression (Lung inflammation network) of 0, an NOD2 expression (Lung inflammation network) of 0 and an NOS2 expression (Lung inflammation network) of 0. It also gave an NQO1 expression (Lung inflammation network) of 0, an NQO2 expression (Lung inflammation network) of 0 and an NT5E expression (Lung inflammation network) of 0. For the same compound, the PDE5A expression (Lung inflammation network) was 0, the PDGFRA expression (Lung inflammation network) was 0 and the PDGFRB expression (Lung inflammation network) was 0. The PLA2G4A expression (Lung inflammation network) was 0, the PLAU expression (Lung inflammation network) was 0 and the PTAFR expression (Lung inflammation network) was 0. It also gave a PTEN expression (Lung inflammation network) of 1.12, a PTGS2 expression (Lung inflammation network) of 0 and a PTPN6 expression (Lung inflammation network) of 0. For the same compound, the PTPRC expression (Lung inflammation network) was 0, the RELB expression (Lung inflammation network) was 0 and the S100A4 expression (Lung inflammation network) was 0. For the same compound, the SELE expression (Lung inflammation network) was 0, the SFTPA1 expression (Lung inflammation network) was 1.126 and the SFTPD expression (Lung inflammation network) was 0. It also gave an SLC6A2 expression (Lung inflammation network) of 0, an SOCS1 expression (Lung inflammation network) of 0 and an SPI1 expression (Lung inflammation network) of 0. The SPP1 expression (Lung inflammation network) was 0, the STAT1 expression (Lung inflammation network) was 0 and the TFPI expression (Lung inflammation network) was 1.241.
